According to ChEMBL document CHEMBL1132232, “7alpha-Iodo and 7alpha-fluoro steroids as androgen receptor-mediated imaging agents” (J Med Chem, 1999):

Molecular target: T1, Androgen receptor (Homo sapiens) (UniProt P10275)
T1 sequence (whole entry): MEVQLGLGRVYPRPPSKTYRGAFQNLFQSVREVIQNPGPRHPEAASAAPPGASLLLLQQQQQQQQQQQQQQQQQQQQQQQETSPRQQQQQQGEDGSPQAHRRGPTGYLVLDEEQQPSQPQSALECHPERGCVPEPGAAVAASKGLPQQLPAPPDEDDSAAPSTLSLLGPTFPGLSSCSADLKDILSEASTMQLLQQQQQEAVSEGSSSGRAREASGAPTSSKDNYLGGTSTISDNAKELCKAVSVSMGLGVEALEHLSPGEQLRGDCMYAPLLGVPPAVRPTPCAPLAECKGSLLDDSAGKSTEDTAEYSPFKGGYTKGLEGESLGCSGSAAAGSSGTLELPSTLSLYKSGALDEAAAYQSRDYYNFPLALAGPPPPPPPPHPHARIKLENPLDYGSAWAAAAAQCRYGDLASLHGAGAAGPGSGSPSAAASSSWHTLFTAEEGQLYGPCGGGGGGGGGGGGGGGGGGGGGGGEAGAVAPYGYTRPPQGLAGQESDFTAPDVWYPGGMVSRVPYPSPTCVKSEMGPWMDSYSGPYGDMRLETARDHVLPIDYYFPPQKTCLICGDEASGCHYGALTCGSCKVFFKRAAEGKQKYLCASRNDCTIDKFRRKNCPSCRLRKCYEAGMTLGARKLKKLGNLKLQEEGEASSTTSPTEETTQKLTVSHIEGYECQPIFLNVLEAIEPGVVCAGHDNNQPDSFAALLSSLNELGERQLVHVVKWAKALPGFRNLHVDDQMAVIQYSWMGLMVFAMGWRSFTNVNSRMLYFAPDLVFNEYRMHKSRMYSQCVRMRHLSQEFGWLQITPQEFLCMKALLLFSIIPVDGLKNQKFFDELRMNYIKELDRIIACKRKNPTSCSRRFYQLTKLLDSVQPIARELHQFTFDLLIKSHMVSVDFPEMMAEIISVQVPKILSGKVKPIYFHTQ
Details: CV-1
Description: Relative stimulatory activity compared to 5-alpha-DHT in CV-1 cells expressing androgen receptor

Structure (SMILES)	RSA
CC12CC[C@@H]3C4CCC(=O)CC4C[C@@H](F)[C@H]3[C@@H]1CC[C@]2(C)O (some centres undefined)	16
CC12CCC(=O)CC1C[C@@H](F)[C@@H]1[C@@H]2CCC2(C)[C@H]1CC[C@]2(C)O (some centres undefined)	418
C[C@]12CC[C@@H]3C4CCC(=O)CC4C[C@@H](F)[C@H]3[C@@H]1CC[C@@H]2O (some centres undefined)	44
CC12CC[C@H]3[C@@H]([C@H](F)CC4CC(=O)CCC43C)[C@@H]1CCC2O (some centres undefined)	60
